Assay results: US12304890B2, “R-type pyridyloxycarboxylic acid, salt and ester derivative thereof, and preparation method therefor, and herbicidal composition and application thereof” (Qingdao Kingagroot Chemical Compound Co., Ltd., priority 2018, dated 2025)

Assays:
Assay type in all cases: in vivo
[1] = system: Echinochloa crusgalli; test: Post-emergence test experiment, Echinochloa crusgalli; settings: for Activity level (growth inhibition rate), Echinochloa crusgalli: 1000 g a.i./ha, 3 weeks in greenhouse, fresh weight inhibition
Description: (§1) The above described growth inhibition rate is fresh weight inhibition rate.
(§2) Post-emergence test experiment: Monocotyledonous and dicotyledonous weed seeds and main crop seeds (i. e. wheat, corn, rice, soybean, cotton, oilseed, millet and sorghum.) were put into a plastic pot loaded with soil. Then covered with 0.5-2 cm soil, the seeds were allowed to grow in good greenhouse environment. The test plants were treated at 2-3 leaf stage 2 weeks after sowing. The test compounds of the invention were dissolved with acetone respectively, then added with tween-80, and using 1.5 liters per hectare of an emulsible concentrate of methyl oleate as a synergist, and diluted by certain amount of water to certain concentration. The solution was sprayed to the plants with a sprayer. Then the plants were cultured for 3 weeks in the greenhouse, and the experiment result of weed controlling effect was listed in tables 4-5.

[2] = system: Monocotyledonous and dicotyledonous weed seeds and main crop seeds; test: Post-emergence test experiment, other weeds and crops (Table 4, 1000 g a.i./ha); settings: 3 weeks in greenhouse, fresh weight inhibition
Description: as §1
as §2, with “sprayer.” for “sprayer. Then the plants were cultured for 3 weeks in the greenhouse, and the experiment result of weed controlling effect was listed in tables 4-5.”

[3] = system: Digitaria sanguinalis; test: Post-emergence test experiment, Digitaria sanguinalis; settings: 1000 g a.i./ha, 3 weeks in greenhouse, fresh weight inhibition
Description: as §1, §2

SMILES	Activity level (growth inhibition rate), Echinochloa crusgalli [1]	Activity level (growth inhibition rate), Abutilon theophrasti Medic. [2]	Activity level (growth inhibition rate), Galium aparine [2]	Activity level (growth inhibition rate), Monochoria Vaginalis [2]	Activity level (growth inhibition rate), Digitaria sanguinalis [3]	inhibition at 200 g/ha ([1]; Echinochloa crus-galli, 504 h, 200 g a.i./ha, 3 weeks, weed resistant to ALS inhibitor and ACCe herbicides, read-out: Echinochloa crusgalli, activity level (growth inhibition rate)) [%]
CC(Oc1nc(F)c(Cl)c(N)c1Cl)C(=O)[S-].CC(Oc1nc(F)c(Cl)c(N)c1Cl)C(=O)[S-].[Ca+2] (centres unmarked) [Compound 2-2]	5 (Level 5: the growth inhibition rate is greater than 85%)	5 (Level 5: the growth inhibition rate is greater than 85%)	5 (Level 5: the growth inhibition rate is greater than 85%)	5 (Level 5: the growth inhibition rate is greater than 85%)	5 (Level 5: the growth inhibition rate is greater than 85%)	–
CC(Oc1nc(F)c(Cl)c(N)c1Cl)C(=O)O.N (centres unmarked) [Compound 2-3]	5 (Level 5: the growth inhibition rate is greater than 85%)	5 (Level 5: the growth inhibition rate is greater than 85%)	5 (Level 5: the growth inhibition rate is greater than 85%)	5 (Level 5: the growth inhibition rate is greater than 85%)	5 (Level 5: the growth inhibition rate is greater than 85%)	–
COC(=O)C(Oc1nc(F)c(Cl)c(N)c1Cl)[N+](=O)[O-] (centres unmarked) [Compound 2-50]	–	5 (Level 5: the growth inhibition rate is greater than 85%)	5 (Level 5: the growth inhibition rate is greater than 85%)	5 (Level 5: the growth inhibition rate is greater than 85%)	–	–
COC(=O)C(F)Oc1nc(F)c(Cl)c(N)c1Cl (centres unmarked) [Compound 2-51]	–	5 (Level 5: the growth inhibition rate is greater than 85%)	5 (Level 5: the growth inhibition rate is greater than 85%)	5 (Level 5: the growth inhibition rate is greater than 85%)	–	–
COC(=O)C(Br)Oc1nc(F)c(Cl)c(N)c1Cl (centres unmarked) [Compound 2-52]	–	5 (Level 5: the growth inhibition rate is greater than 85%)	5 (Level 5: the growth inhibition rate is greater than 85%)	5 (Level 5: the growth inhibition rate is greater than 85%)	–	–
COC(=O)C(Cl)Oc1nc(F)c(Cl)c(N)c1Cl (centres unmarked) [Compound 2-53]	–	5 (Level 5: the growth inhibition rate is greater than 85%)	5 (Level 5: the growth inhibition rate is greater than 85%)	5 (Level 5: the growth inhibition rate is greater than 85%)	–	–
COC(=O)C(N)Oc1nc(F)c(Cl)c(N)c1Cl (centres unmarked) [Compound 2-56]	–	5 (Level 5: the growth inhibition rate is greater than 85%)	5 (Level 5: the growth inhibition rate is greater than 85%)	5 (Level 5: the growth inhibition rate is greater than 85%)	–	–
COC(=O)C(Oc1nc(F)c(Cl)c(N)c1Cl)SC (centres unmarked) [Compound 2-57]	–	5 (Level 5: the growth inhibition rate is greater than 85%)	5 (Level 5: the growth inhibition rate is greater than 85%)	5 (Level 5: the growth inhibition rate is greater than 85%)	–	–
COC(=O)C(OC)Oc1nc(F)c(Cl)c(N)c1Cl (centres unmarked) [Compound 2-58]	–	5 (Level 5: the growth inhibition rate is greater than 85%)	5 (Level 5: the growth inhibition rate is greater than 85%)	5 (Level 5: the growth inhibition rate is greater than 85%)	–	–
COC(=O)C(CN(C)C)Oc1nc(F)c(Cl)c(N)c1Cl (centres unmarked) [Compound 2-59]	–	5 (Level 5: the growth inhibition rate is greater than 85%)	5 (Level 5: the growth inhibition rate is greater than 85%)	5 (Level 5: the growth inhibition rate is greater than 85%)	–	–
COC(=O)C(CC#N)Oc1nc(F)c(Cl)c(N)c1Cl (centres unmarked) [Compound 2-60]	–	5 (Level 5: the growth inhibition rate is greater than 85%)	5 (Level 5: the growth inhibition rate is greater than 85%)	5 (Level 5: the growth inhibition rate is greater than 85%)	–	–
COC(=O)C(C#N)Oc1nc(F)c(Cl)c(N)c1Cl (centres unmarked) [Compound 2-61]	–	5 (Level 5: the growth inhibition rate is greater than 85%)	5 (Level 5: the growth inhibition rate is greater than 85%)	5 (Level 5: the growth inhibition rate is greater than 85%)	–	–
COC(=O)C(Oc1nc(F)c(Cl)c(N)c1Cl)c1ccccc1 (centres unmarked) [Compound 2-62]	–	5 (Level 5: the growth inhibition rate is greater than 85%)	5 (Level 5: the growth inhibition rate is greater than 85%)	5 (Level 5: the growth inhibition rate is greater than 85%)	–	–
COC(=O)C(Cc1ccccc1)Oc1nc(F)c(Cl)c(N)c1Cl (centres unmarked) [Compound 2-63]	–	5 (Level 5: the growth inhibition rate is greater than 85%)	5 (Level 5: the growth inhibition rate is greater than 85%)	5 (Level 5: the growth inhibition rate is greater than 85%)	–	–
COC(=O)[C@H](Oc1nc(F)c(Cl)c(N)c1Cl)c1cccc(Cl)c1 [Compound 2-64]	–	5 (Level 5: the growth inhibition rate is greater than 85%)	5 (Level 5: the growth inhibition rate is greater than 85%)	5 (Level 5: the growth inhibition rate is greater than 85%)	–	–
COC(=O)[C@@H](Oc1nc(F)c(Cl)c(N)c1Cl)c1cccs1 [Compound 2-65]	–	5 (Level 5: the growth inhibition rate is greater than 85%)	5 (Level 5: the growth inhibition rate is greater than 85%)	5 (Level 5: the growth inhibition rate is greater than 85%)	–	–
COC(=O)[C@@H](Oc1nc(F)c(Cl)c(N)c1Cl)c1nc(Cl)cs1 [Compound 2-67]	–	5 (Level 5: the growth inhibition rate is greater than 85%)	5 (Level 5: the growth inhibition rate is greater than 85%)	5 (Level 5: the growth inhibition rate is greater than 85%)	–	–
COC(=O)[C@H](Oc1nc(F)c(Cl)c(N)c1Cl)c1[nH]ncc1F [Compound 2-68]	–	5 (Level 5: the growth inhibition rate is greater than 85%)	5 (Level 5: the growth inhibition rate is greater than 85%)	5 (Level 5: the growth inhibition rate is greater than 85%)	–	–
CCOC(=O)C(Oc1nc(F)c(Cl)c(N)c1Cl)C1CC1 (centres unmarked) [Compound 2-383]	–	5 (Level 5: the growth inhibition rate is greater than 85%)	5 (Level 5: the growth inhibition rate is greater than 85%)	5 (Level 5: the growth inhibition rate is greater than 85%)	–	–
CSC(=O)C(Oc1nc(F)c(Cl)c(N)c1Cl)c1ccccc1 (centres unmarked) [Compound 2-385]	–	5 (Level 5: the growth inhibition rate is greater than 85%)	5 (Level 5: the growth inhibition rate is greater than 85%)	5 (Level 5: the growth inhibition rate is greater than 85%)	–	–
C[C@H](Oc1nc(F)c(Cl)c(N)c1Cl)C(=O)OCC1CCCO1 (some centres unmarked) [reference compound]	–	–	–	–	–	5 to 20
